Test results published in US5463078A, “Anisomycin derivatives and anticancer agents, antifungal agents and antiprotozoan agents containing the same” (Ajinomoto Co., Inc., priority 1993, dated 1995).
Converted amounts (≈) assume the structure as drawn. Like-named read-outs stand apart in the source and are kept apart here. Each block holds one compound with its values, some of them ahead of it.

Assays:
FM3A cells = test: Inhibitory activity on proliferation of FM3A culture; type: cell-based, mouse; conditions: for IC50: Mus musculus, read-out: IC50 (50% proliferation inhibition concentration)
Protocol: Experiment 2: Measurement of inhibitory activity of anisomycin derivatives on proliferation of FM3A culture
The proliferation-inhibiting activity of the present compounds against a culture of FM3A cells derived from mouse mammary tumor was investigated. Into each well of a 96-well microplate was added 50 μl of 10^5 cells/ml of FM3A cells, which had been suspended in a Dulbecco-modified Eagle culture medium containing 10% fetal calf serum. The IC50 (50% proliferation inhibition concentration) was calculated based on the number of surviving cells for a prescribed concentration of the test compounds.

[1] = Measurement of stability of anisomycin derivatives in rat plasma; type: in vitro ADME
Protocol: Experiment 1: Measurement of stability of anisomycin derivatives in rat plasma
To investigate the stability of the present compounds in rat plasma, the half-life thereof was measured. For the measurement, an approximately 0.25 mg portion of each test compound was dissolved in 150 μl of rat plasma, and the solution was incubated at 37° C. Aliquots were taken over specific periods of time, and the amount of residual anisomycin derivative was measured by HPLC to determine the half-life thereof.

Stability in the blood = conditions: in words
Saccharomyces cereviceae = test: Antifungal activity: growth inhibition of Saccharomyces cereviceae; type: cell-based; conditions: potato dextrose agar, 25° C., 7 days
Protocol: (§1) Experiment 3: Measurement of antifungal activity of anisomycin derivatives
(§2) The growth-inhibiting activity of the present compounds against various fungi was investigated. Into each well of a 6-well microplate, 0.3 ml of a solution of each test compound and 2.7 ml of a sterile solution of potato dextrose agar culture medium (kept at a temperature of about 50° C.) were added. After solidification, 5 μl from each suspension of test cells (yeast: approx. 10^3 cells/ml; mold: approx. 10^4 spores/ml) was inoculated onto the above-mentioned agar medium, and the cultures were maintained at 25° C. for 7 days. The growth of the test cells was observed, and the minimum concentration (MIC value) was determined at which complete inhibition of growth occurred. The test compounds were used after adjustment to 1 mg/ml with dimethylsulfoxide and dilution with distilled water.

protein synthesis = conditions: in words; J. Biol. Chem., vol. 242, p. 3226, 1967; cited from earlier work
Candida albicans = test: Antifungal activity: growth inhibition of Candida albicans; type: cell-based; conditions: potato dextrose agar, 25° C., 7 days
Protocol: as §1, §2

Cryptococcus neoformans = test: Antifungal activity: growth inhibition of Cryptococcus neoformans; type: cell-based; conditions: potato dextrose agar, 25° C., 7 days
Protocol: as §1, §2

[2] = test system: P388 leukemia tumor cells; test: Antitumor effect of anisomycin derivatives in vivo (P388 leukemia, CDF1 mice); set-up: species or system mouse; conditions: P388 i.p. in CDF1 mice; 10 mg/kg i.p. once a day for 10 days
Protocol: Experiment 4: Antitumor effect of anisomycin derivatives in vivo
Into one group of 5 CDF1 mice, 1×10^6 P388 leukemia tumor cells were intraperitoneally transplanted. Beginning the next day, a 10 mg/kg portion of the test compound dissolved in 0.2 ml of a solution containing an equal volume of dimethylsulfoxide and saline was administered to the mice intraperitoneally once a day for 10 days. The increase in the life span of the mice in days (ILS) was determined according to the following equation: [formula]

Mucor rouxii = test: Antifungal activity: growth inhibition of Mucor rouxii; type: cell-based; conditions: potato dextrose agar, 25° C., 7 days
Protocol: as §1, §2

Aspergillus fumigatus = test: Antifungal activity: growth inhibition of Aspergillus fumigatus; type: cell-based; conditions: potato dextrose agar, 25° C., 7 days
Protocol: as §1, §2

[3] = 168 h, read-out: MIC (minimum concentration at which complete inhibition of growth occurred)

Structure (SMILES): COCOC1C(O)CNC1Cc1ccc(OC)cc1 (stereo not shown) [Example 22, 3-O-methoxymethyldeacetylanisomycin]
- IC50 (FM3A cells): 0.062 µg/mL (≈ 0.232 µM)
- Half-life [1]: No decomposition

Structure (SMILES): COc1ccc(CC2NCC(O)C2OC(=O)NCCCc2ccccc2)cc1 (stereo not shown) [Example 5, 3-O-(3-phenylpropyl)carbamoyldeacetylanisomycin]
- Half-life [1]: No decomposition

Structure (SMILES): COc1ccc(CC2NCC(O)C2OC(=O)Nc2ccccc2)cc1 (stereo not shown) [Example 11, 3-O-phenylcarbamoyldeacetylanisomycin]
- Half-life [1]: No decomposition

Structure (SMILES): COc1ccc(CC2NCC(O)C2OC(C)=O)cc1 (single isomer, unassigned) [Anisomycin, anisomycin]
- IC50 (50% proliferation inhibition concentration) (FM3A cells): 0.02 µg/mL (≈ 0.0754 µM)
- Half-life ([1]; rat plasma, 37° C., residual amount by HPLC, read-out: Half-life): 0.05 h
- stability in the blood (Stability in the blood): extremely unstable in the blood and is rapidly hydrolyzed
- MIC (minimum concentration at which complete inhibition of growth occurred) (Saccharomyces cereviceae): 12.5 µg/mL
- cytotoxic activity (protein synthesis): strong cytotoxic activity due to its inhibitory effect on protein synthesis
- MIC (minimum concentration at which complete inhibition of growth occurred) (Candida albicans): 100 µg/mL
- MIC (minimum concentration at which complete inhibition of growth occurred) (Cryptococcus neoformans): 25 µg/mL
- ILS (increase in the life span of the mice) [2]: 0%
- MIC (minimum concentration at which complete inhibition of growth occurred) (Mucor rouxii): > 100 µg/mL
- MIC (minimum concentration at which complete inhibition of growth occurred) (Aspergillus fumigatus): > 100 µg/mL

Structure (SMILES): CCCCCC(=O)OC1CNC(Cc2ccc(OC)cc2)C1OC(N)=O (stereo not shown) [Example 16, 4-O-hexanoyl-3-O-carbamoyldeacetylanisomycin]
- IC50 (FM3A cells): 0.039 µg/mL (≈ 0.107 µM)

Structure (SMILES): CCCCCCC(=O)OC1CNC(Cc2ccc(OC)cc2)C1OC(N)=O (stereo not shown) [Example 17, 4-O-heptanoyl-3-O-carbamoyldeacetylanisomycin]
- IC50 (FM3A cells): 0.03 µg/mL (≈ 0.0793 µM)

Structure (SMILES): COc1ccc(CC2NCC(O)C2OC(N)=O)cc1 (stereo not shown) [Example 2, 3-O-carbamoyldeacetylanisomycin]
- Half-life [1]: No decomposition

Second part, led by results:

- Half-life ([1]; rat, plasma): 6.67 h
Structure (SMILES): COc1ccc(CC2NCC(OC(C)=O)C2OC(N)=O)cc1 (stereo not shown) [Example 15, 4-O-acetyl-3-O-carbamoylanisomycin]
- IC50 (FM3A cells): 0.039 µg/mL (≈ 0.126 µM)

- Half-life [1]: No decomposition
Structure (SMILES): CNC(=O)OC1C(O)CNC1Cc1ccc(OC)cc1 (stereo not shown) [Example 1, 3-O-methylcarbamoyl-deacetylanisomycin]
- IC50 (FM3A cells): 0.06 µg/mL (≈ 0.214 µM)

- MIC (Saccharomyces cereviceae; [3]): 25 µg/mL (≈ 55.7 µM)
- MIC (Candida albicans; [3]): 50 µg/mL (≈ 111 µM)
- MIC (Cryptococcus neoformans; [3]): 3.1 µg/mL (≈ 6.91 µM)
- MIC (Mucor rouxii; Amylomyces rouxii, 168 h, read-out: MIC (minimum concentration at which complete inhibition of growth occurred)): 50 µg/mL (≈ 111 µM)
- MIC (Aspergillus fumigatus; [3]): 50 µg/mL (≈ 111 µM)
Structure (SMILES): CCCCCCCCCCCC(=O)OC1CNC(Cc2ccc(OC)cc2)C1OC(N)=O (stereo not shown) [Example 18, 4-O-dodecanoyl-3-O-carbamoyldeacetylanisomycin]
- IC50 (FM3A cells): < 0.02 µg/mL
- ILS (increase in the life span of the mice) [2]: 44%
